Measured values from article PMC12155096 (International Journal of Molecular Sciences, 2025).
Read-outs that look alike come from different tables or passages of the source.

Key:
[1] = target: Photinus pyralis (firefly) luciferase (Photinus pyralis, UniProt P08659); test: biochemical; type: biochemical
human CYP2D6 = human CYP2D6 (Homo sapiens, UniProt P10635)
human CYP1A2 [2] = target: T1, human CYP1A2 (Homo sapiens, UniProt P05177); test: biochemical; conditions: CYP1A2 IC50
T1 sequence (P05177 1-516): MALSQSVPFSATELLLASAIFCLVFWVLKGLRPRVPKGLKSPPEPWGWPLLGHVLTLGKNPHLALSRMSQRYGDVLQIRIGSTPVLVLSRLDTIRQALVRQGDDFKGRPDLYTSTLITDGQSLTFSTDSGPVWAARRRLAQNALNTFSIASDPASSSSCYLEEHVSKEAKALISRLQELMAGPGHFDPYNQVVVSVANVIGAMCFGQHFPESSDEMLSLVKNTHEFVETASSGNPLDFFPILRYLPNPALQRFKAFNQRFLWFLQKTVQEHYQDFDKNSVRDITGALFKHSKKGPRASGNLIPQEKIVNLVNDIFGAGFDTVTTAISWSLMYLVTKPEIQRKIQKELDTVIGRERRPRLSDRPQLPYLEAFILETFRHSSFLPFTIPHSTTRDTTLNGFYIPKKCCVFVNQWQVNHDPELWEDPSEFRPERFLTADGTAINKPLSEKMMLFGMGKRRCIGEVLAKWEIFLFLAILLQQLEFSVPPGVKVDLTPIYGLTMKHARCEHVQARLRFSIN

human CYP2C9 [3] = target: T2, human CYP2C9 (Homo sapiens, UniProt P11712); test: biochemical; conditions: CYP2C9 IC50
T2 sequence (P11712 whole entry): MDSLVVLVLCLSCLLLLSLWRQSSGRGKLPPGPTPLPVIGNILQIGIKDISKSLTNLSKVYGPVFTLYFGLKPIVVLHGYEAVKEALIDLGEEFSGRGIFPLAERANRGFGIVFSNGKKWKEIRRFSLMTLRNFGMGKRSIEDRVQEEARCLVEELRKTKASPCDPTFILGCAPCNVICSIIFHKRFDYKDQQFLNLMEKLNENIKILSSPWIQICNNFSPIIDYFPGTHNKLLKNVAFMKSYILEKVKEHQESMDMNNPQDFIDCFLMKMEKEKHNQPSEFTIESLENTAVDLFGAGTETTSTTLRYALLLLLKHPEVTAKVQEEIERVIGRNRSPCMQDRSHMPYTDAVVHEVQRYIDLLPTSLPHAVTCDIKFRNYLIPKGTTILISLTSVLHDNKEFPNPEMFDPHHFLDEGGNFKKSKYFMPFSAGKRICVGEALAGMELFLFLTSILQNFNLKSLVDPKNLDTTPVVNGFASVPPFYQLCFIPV

human CYP2C19 [4] = target: T3, human CYP2C19 (Homo sapiens, UniProt P33261); test: biochemical; conditions: CYP2C19 IC50
T3 sequence (P33261 whole entry): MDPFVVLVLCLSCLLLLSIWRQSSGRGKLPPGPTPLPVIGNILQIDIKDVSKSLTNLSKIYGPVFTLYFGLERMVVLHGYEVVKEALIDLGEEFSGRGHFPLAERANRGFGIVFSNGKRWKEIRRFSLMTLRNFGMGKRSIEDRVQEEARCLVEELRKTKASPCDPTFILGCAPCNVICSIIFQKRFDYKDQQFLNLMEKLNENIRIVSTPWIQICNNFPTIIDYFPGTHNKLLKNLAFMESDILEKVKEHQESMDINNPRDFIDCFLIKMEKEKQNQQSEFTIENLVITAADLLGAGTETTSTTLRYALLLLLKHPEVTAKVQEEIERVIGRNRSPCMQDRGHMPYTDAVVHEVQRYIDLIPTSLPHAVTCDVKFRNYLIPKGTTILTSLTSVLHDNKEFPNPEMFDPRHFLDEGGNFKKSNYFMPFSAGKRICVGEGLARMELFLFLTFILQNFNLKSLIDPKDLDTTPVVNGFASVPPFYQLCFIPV

human CYP1A2 [5] = target: T1, human CYP1A2
human CYP2C9 [6] = target: T2, human CYP2C9
human CYP2C19 [7] = target: T3, human CYP2C19
CYP3A4 = CYP3A4 (Homo sapiens, UniProt P08684)
Sequence of CYP3A4 (P08684 whole entry): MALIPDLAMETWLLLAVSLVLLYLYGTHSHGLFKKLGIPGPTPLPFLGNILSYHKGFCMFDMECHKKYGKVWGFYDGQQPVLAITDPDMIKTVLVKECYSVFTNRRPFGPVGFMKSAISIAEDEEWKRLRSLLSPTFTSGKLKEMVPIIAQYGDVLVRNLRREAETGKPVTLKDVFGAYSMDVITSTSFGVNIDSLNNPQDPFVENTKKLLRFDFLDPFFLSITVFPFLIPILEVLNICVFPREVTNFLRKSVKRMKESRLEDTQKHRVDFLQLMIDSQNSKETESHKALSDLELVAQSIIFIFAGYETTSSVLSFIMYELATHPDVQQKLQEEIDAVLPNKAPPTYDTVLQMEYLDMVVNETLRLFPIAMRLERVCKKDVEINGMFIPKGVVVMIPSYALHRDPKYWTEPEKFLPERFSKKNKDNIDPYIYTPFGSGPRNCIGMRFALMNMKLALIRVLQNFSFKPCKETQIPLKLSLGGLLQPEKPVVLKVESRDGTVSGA

[8] = read-out: Luciferase IC50 (half-maximal inhibitory concentration)

Sequence of Photinus pyralis (firefly) luciferase (P08659 whole entry): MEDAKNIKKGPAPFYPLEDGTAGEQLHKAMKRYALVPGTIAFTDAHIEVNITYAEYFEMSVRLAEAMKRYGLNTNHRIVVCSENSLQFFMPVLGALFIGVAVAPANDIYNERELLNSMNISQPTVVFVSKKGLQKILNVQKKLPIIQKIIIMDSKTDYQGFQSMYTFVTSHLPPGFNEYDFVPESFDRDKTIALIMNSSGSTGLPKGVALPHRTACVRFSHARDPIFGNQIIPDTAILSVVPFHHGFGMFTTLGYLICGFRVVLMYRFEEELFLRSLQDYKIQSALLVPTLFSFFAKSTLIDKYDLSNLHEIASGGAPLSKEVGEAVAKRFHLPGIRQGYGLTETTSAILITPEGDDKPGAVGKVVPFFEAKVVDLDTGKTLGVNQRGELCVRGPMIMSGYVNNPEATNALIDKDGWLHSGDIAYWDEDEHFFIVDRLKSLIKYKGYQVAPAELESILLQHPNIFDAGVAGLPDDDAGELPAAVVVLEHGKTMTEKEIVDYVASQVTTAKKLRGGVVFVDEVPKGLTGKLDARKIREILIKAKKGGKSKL
Sequence of human CYP2D6 (P10635 whole entry): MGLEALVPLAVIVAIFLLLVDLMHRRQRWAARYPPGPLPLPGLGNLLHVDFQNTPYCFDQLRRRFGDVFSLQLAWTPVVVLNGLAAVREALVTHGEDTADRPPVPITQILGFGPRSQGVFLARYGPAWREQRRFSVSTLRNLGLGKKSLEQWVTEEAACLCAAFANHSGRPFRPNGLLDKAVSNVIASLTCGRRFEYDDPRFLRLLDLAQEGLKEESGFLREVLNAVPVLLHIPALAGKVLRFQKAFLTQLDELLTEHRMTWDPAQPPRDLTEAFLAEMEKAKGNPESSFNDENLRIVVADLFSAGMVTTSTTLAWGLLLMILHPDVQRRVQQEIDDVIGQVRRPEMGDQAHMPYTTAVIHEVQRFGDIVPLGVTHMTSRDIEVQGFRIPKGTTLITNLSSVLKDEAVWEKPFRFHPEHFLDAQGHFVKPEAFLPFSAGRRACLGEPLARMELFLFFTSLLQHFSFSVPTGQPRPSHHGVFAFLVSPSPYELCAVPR

## Cl[C@H]1[C@H](Cl)[C@@H](Cl)[C@H](Cl)[C@@H](Cl)[C@@H]1Cl [beta-Hexachlorocyclohexane]
[1]
  Luciferase IC50: Inactive
Human CYP2D6
  CYP2D6 IC50: Inactive
Human CYP1A2 [2]
  IC50: 1.14 µM
Human CYP2C9 [3]
  IC50: 4.17 µM
Human CYP2C19 [4]
  IC50: 1.96 µM

## CC[C@]12CCCN3CCc4c(n(c5ccccc45)C(=O)C1)[C@@H]32 [(-)-Eburnamonine]
[1]
  Luciferase IC50 (half-maximal inhibitory concentration): Inactive
Human CYP1A2 [5]
  IC50: 24.1 µM
Human CYP2C9 [6]
  IC50: 20.1 µM
Human CYP2C19 [7]
  IC50: 6.17 µM
CYP3A4
  IC50: 4.38 µM

## O=C1NCN(c2ccccc2)C12CCN(CCCOc1ccc(F)cc1)CC2 [AMI-193]
[1]
  Luciferase IC50: Inactive
Human CYP1A2 [5]
  CYP1A2 IC50: Inactive
Human CYP2C9 [6]
  CYP2C9 IC50: Inactive
Human CYP2C19 [7]
  CYP2C19 AC50 (half-maximal activity concentration): Inconclusive inhibitor
  CYP2C19 IC50: Inactive
Human CYP2D6
  AC50: 0.6 µM
  IC50: 0.6 µM
CYP3A4
  AC50: 4.72 µM
  CYP3A4 IC50: 4.72 ± 0.31 (133 ± 10) µM

## CCCC[P+](CC)(CCCC)CCCC.CCOP(=O)([O-])OCC
[1]
  Luciferase IC50: Inactive
Human CYP1A2 [5]
  CYP1A2 IC50: Inactive
Human CYP2C9 [6]
  CYP2C9 IC50: Inactive
Human CYP2C19 [7]
  CYP2C19 Efficacy: 70.71 ± 33.56 (-88 ± 37) %
Human CYP2D6
  IC50: 0.06 µM
CYP3A4
  CYP3A4 IC50: Inactive

## O=S(=O)(O)C(F)(F)C(F)(F)C(F)(F)C(F)(F)C(F)(F)C(F)(F)C(F)(F)C(F)(F)F [PFOS]
[1]; [8]
  IC50: 71.3 µM
Human CYP1A2 [5]
  IC50: 32.3 µM
Human CYP2C9 [6]
  IC50: 0.51 µM
Human CYP2C19 [7]
  IC50: 23.4 µM
Human CYP2D6
  IC50: 28.4 µM
CYP3A4
  IC50: 80 µM

## Nc1nc2ccc([N+](=O)[O-])cc2s1 [2-Amino-6-nitrobenzothiazole]
[1]; read-out: Luciferase IC50
  IC50: 66.4 µM
Human CYP1A2 [5]
  IC50: 9.75 µM
Human CYP2C9 [6]
  CYP2C9 Efficacy: 59.75 ± 4.61 (-39 ± 3) %
Human CYP2C19 [7]
  IC50: 35.7 µM
Human CYP2D6
  IC50: 44 µM
CYP3A4
  IC50: 60.6 µM

## CC(=C(CCOC(=O)C(C)C)SSC(CCOC(=O)C(C)C)=C(C)N(C=O)Cc1cnc(C)nc1N)N(C=O)Cc1cnc(C)nc1N (stereo in doubt) [Bisibutiamine]
[1]
  Luciferase IC50 (half-maximal inhibitory concentration): Inactive
Human CYP1A2 [5]
  CYP1A2 IC50 (half-maximal inhibitory concentration): Inactive
Human CYP2C9 [6]
  CYP2C9 IC50 (half-maximal inhibitory concentration): Inactive
Human CYP2C19 [7]
  CYP2C19 IC50 (half-maximal inhibitory concentration): Inactive
Human CYP2D6
  CYP2D6 IC50 (half-maximal inhibitory concentration): Inactive
CYP3A4
  IC50: 0.36 µM

## CCOC(=O)c1c(C)n(C)c2ccc(O)cc12 [Mecarbinate]
[1]
  Luciferase IC50 (half-maximal inhibitory concentration): Inactive
Human CYP1A2 [5]
  IC50: 0.54 µM
Human CYP2C9 [6]
  IC50: 12.9 µM
Human CYP2C19 [7]
  IC50: 7.23 µM
Human CYP2D6
  IC50: 17.9 µM
CYP3A4
  IC50: 5.97 µM

## O=S(=O)(Oc1ccc(Cl)cc1)c1ccccc1 [Fenson]
[1]
  Luciferase Efficacy (in parenthesis): 76.75 ± 5.00 (-30 ± 10) %
[1]; [8]
  IC50: 76.8 µM
Human CYP1A2 [5]
  CYP1A2 Efficacy: 5.64 ± 0.00 (-100 ± 5) %
  CYP1A2 Efficacy (in parenthesis): 5.64 ± 0 (-100 ± 5) %
  IC50: 5.64 µM
Human CYP2C9 [6]
  AC50: 34.3 µM
  CYP2C9 Efficacy: 34.28 ± 2.23 (-89 ± 7) %
  IC50: 34.3 µM
Human CYP2C19 [7]
  CYP2C19 Efficacy: 0.78 ± 0.29 (-135 ± 6) %
  CYP2C19 Efficacy (in parenthesis): 0.78 ± 0.29 (-135 ± 6) %
  IC50: 0.78 µM
Human CYP2D6
  AC50: 35.7 µM
  CYP2D6 Efficacy: 35.73 ± 4.11 (-62 ± 14) %
  IC50: 35.7 µM
CYP3A4
  AC50: 6.61 µM
  CYP3A4 Efficacy (in parenthesis): 6.61 ± 0.84 (131 ± 4) %
  CYP3A4 IC50 (half-maximal inhibitory concentration): 6.61 ± 0.84 (131 ± 4) µM

## N#Cc1cc2ccccc2c2ccccc12 [9-Cyanophenanthrene]
[1]; read-out: Luciferase IC50
  IC50: 62.4 µM
Human CYP1A2 [5]
  IC50: 0.06 µM
Human CYP2C9 [6]
  IC50: 39.3 µM
Human CYP2C19 [7]
  IC50: 29.3 µM
Human CYP2D6
  CYP2D6 IC50: Inactive
CYP3A4
  CYP3A4 IC50: Inactive

## COc1cc(-c2ccc(N)c(OC)c2)ccc1N.Cl.Cl [3,3'-Dimethoxybenzidine dihydrochloride]
[1]; [8]
  IC50: 60.4 µM
Human CYP1A2 [5]
  IC50: 0.82 µM
Human CYP2C9 [6]
  IC50: 8.91 µM
Human CYP2C19 [7]
  IC50: 7.39 µM
Human CYP2D6
  IC50: 30.4 µM
CYP3A4
  IC50: 1.71 µM

## COc1cc(Cl)ccc1Oc1ccc(Cl)cc1Cl [Methyl triclosan]
[1]; read-out: Luciferase IC50
  IC50: 48.9 µM
Human CYP1A2 [5]
  IC50: 15.1 µM
Human CYP2C9 [6]
  IC50: 12 µM
Human CYP2C19 [7]
  IC50: 0.72 µM
Human CYP2D6
  CYP2D6 IC50: Inactive
CYP3A4
  IC50: 70.2 µM

## CCOC(CN1CCN(CC(C)C(=O)c2ccccc2)CC1)c1ccccc1.Cl.Cl (stereo not drawn) [Eprazinone dihydrochloride]
[1]
  Luciferase IC50 (half-maximal inhibitory concentration): Inactive
Human CYP1A2 [5]
  CYP1A2 IC50 (half-maximal inhibitory concentration): Inactive
Human CYP2C9 [6]
  AC50: 11.5 µM
  IC50: 11.5 µM
Human CYP2C19 [7]
  CYP2C19 IC50 (half-maximal inhibitory concentration): Inactive
Human CYP2D6
  AC50: 0.2 µM
  IC50: 0.2 µM
CYP3A4
  AC50: 15.2 µM
  CYP3A4 IC50 (half-maximal inhibitory concentration): 15.16 ± 1.74 (64 ± 2) µM
